Source: US10150772B2, “Crystalline forms of PARP inhibitors” (priority 2014, dated 2018)
Entries after “also recorded” stand apart in the source; their conditions may differ. Structures can show the parent of a compound that is named as a salt. Where two headings read alike, the source gives them in different places.

Experiments:
[1] = format: physicochemical; design: DSC: unit not given beside the values; conditions: 40° C. and 75% RH; for Stability to the test conditions (in words): 28 day test period
Description: Identity, Assay, and Purity by HPLC
Testing was performed on a calibrated and validated Agilent 1200 Rapid Resolution High Performance Liquid Chromatography (HPLC) system designated LC-0430-AD or LC-418-1D. The system comprises a binary SL pump, degasser, high performance autosampler SL with a fraction collector, thermostated column compartment with a 2 valve column switcher, and a DAD SL detector. All standard solutions and samples were prepared in Class A glass volumetric flasks and were placed in autosampler vials. Standard weighings were done using a calibrated Mettler analytical balance. The sample preparations were centrifuged using an Eppendorf microcentrifuge. The primary chromatography data was acquired and integrated using Empower 2 software. Microsoft Office Excel 2003 was used for the calculation of results.
Solid State Stability of Salts at 40° C. and 75% Humidity:
Samples of the form to be studied (15-20 mg) were weighed into standard 1.5 mL HPLC vials (32×11.6 mm) and stored uncapped for 0, 7, 14 and 28 days in a 40° C. and 75% RH stability chamber. Samples were removed on the indicated day and capped. Measurements of XRPD, DSC, TGA and HPLC Identity by Purity and Assay measurements were completed on each time point sample.

[2] = Estimation of water solubility; format: physicochemical; conditions: visual inspection, 10 mg sample
Description: Estimation of Water Solubility: Ten mg portions of the salt forms to be studied were weighed into a standard 1.5 mL HPLC vial (32×11.6 mm). […] An estimation of solubility was based on the volume of water necessary to dissolve the known weight of sample.

[3] = Dynamic vapor sorption (DVS), water sorption; format: physicochemical; conditions: DVS, 25° C.
Description: Dynamic Vapor Sorption (DVS):
DVS experiments have been carried out using the DVS-HT instrument (Surface Measurement Systems, London, UK). This instrument measures the uptake and loss of vapor gravimetrically using a recording ultra-microbalance with a mass resolution of ±0.1 μg. The vapor partial pressure (±1.0%) around the sample is controlled by mixing saturated and dry carrier gas streams using electronic mass flow controllers. The desired temperature is maintained at ±0.1° C. The samples (1-10 mg) were placed into the DVS-HT and DVS-1 instruments at the desired temperature.
The sample was loaded and unloaded at 40% RH and 25° C. (typical room conditions). A moisture sorption isotherm was performed as outlined below (2 scans giving 1 complete cycle). The software uses a least squares minimization procedure together with a model of the mass relaxation, to predict an asymptotic value. The measured mass equilibration value must be within 2% of that predicted by the software before proceeding to the next % RH value. The minimum equilibration time was set to 1 hour and the maximum to 4 hours.

SMILES: COc1cccc2[nH]c3c4c(c5c(c3c12)C(=O)N(CN1CCN(C)CC1)C5=O)CCC4.O=C1CC[C@@H](C(=O)O)N1
- COMPOUND A Assay ([1]; day 0): 65.5%
- COMPOUND B Assay ([1]; day 0): 0.6%
- DSC ([1]; day 0): 198.2
- HPLC Purity ([1]; day 0): 98.6%
- TGA ([1]; day 0): 0.49%
- COMPOUND A Assay ([1]; day 7): 71.4%
- COMPOUND B Assay ([1]; day 7): 0.6%
- DSC ([1]; day 7): 199.0
- HPLC Purity ([1]; day 7): 98.7%
- TGA ([1]; day 7): 0.54%
- XRPD ([1]; day 7): No change
- COMPOUND A Assay ([1]; day 14): 60.2%
- COMPOUND B Assay ([1]; day 14): 0.8%
- DSC ([1]; day 14): 198.3
- HPLC Purity ([1]; day 14): 98.2%
- TGA ([1]; day 14): 0.64%
- XRPD ([1]; day 14): No change
- COMPOUND A Assay ([1]; day 28): 64.0%
- COMPOUND B Assay ([1]; day 28): 1.2%
- DSC ([1]; day 28): 198.4
- HPLC Purity ([1]; day 28): 97.2%
- XRPD ([1]; day 28): No change

SMILES: COc1cccc2[nH]c3c4c(c5c(c3c12)C(=O)N(CN1CCN(C)CC1)C5=O)CCC4 [39-1(2)]
- Estimated Water Solubility [2]: ~25 mg/mL

SMILES: COc1cccc2[nH]c3c4c(c5c(c3c12)C(=O)N(CN1CCN(C)CC1)C5=O)CCC4 [39-2(2)]
- Estimated Water Solubility [2]: >100 mg/mL

SMILES: COc1cccc2[nH]c3c4c(c5c(c3c12)C(=O)N(CN1CCN(C)CC1)C5=O)CCC4 [39-3(2)]
- Estimated Water Solubility [2]: >100 mg/mL

SMILES: COc1cccc2[nH]c3c4c(c5c(c3c12)C(=O)N(CN1CCN(C)CC1)C5=O)CCC4 [39-5(2)]
- Estimated Water Solubility [2]: >100 mg/mL

SMILES: COc1cccc2[nH]c3c4c(c5c(c3c12)C(=O)N(CN1CCN(C)CC1)C5=O)CCC4 [Acetate Salt, Form A1.5]
- Stability to the test conditions (in words) [1]: changes throughout the 28 day test period
- HPLC Purity ([1]; day 0): 99.7%
- TGA ([1]; day 0): 21.5%
- COMPOUND A Assay ([1]; day 0, HPLC): 78.1%
- COMPOUND B Assay ([1]; day 0, HPLC): 0.2%
- HPLC Purity ([1]; day 7): 99.6%
- TGA ([1]; day 7): 20.0%
- XRPD ([1]; day 7): Shows hydrate
- COMPOUND A Assay ([1]; day 7, HPLC): 70.2%
- COMPOUND B Assay ([1]; day 7, HPLC): 0.1%
- HPLC Purity ([1]; day 14): 99.5%
- TGA ([1]; day 14): 16.1%
- XRPD ([1]; day 14): Shows hydrate
- COMPOUND A Assay ([1]; day 14, HPLC): 84.2%
- COMPOUND B Assay ([1]; day 14, HPLC): 0.2%
- HPLC Purity ([1]; day 28): 99.6%
- TGA ([1]; day 28): 9.6%
- XRPD ([1]; day 28): Shows hydrate,
- COMPOUND A Assay ([1]; day 28, HPLC): 90.9%
- COMPOUND B Assay ([1]; day 28, HPLC): 0.3%
- DVS sorption behaviour (in words) [3]: steady weight loss during the drying curves with no equilibration reached

SMILES: COc1cccc2[nH]c3c4c(c5c(c3c12)C(=O)N(CN1CCN(C)CC1)C5=O)CCC4 [Glycolate Salt Hydrate, Form A1]
- Stability to the test conditions (in words) [1]: fairly stable to the test conditions; also recorded: generated the least amount of Compound B
- HPLC Purity ([1]; day 0): 99.8%
- TGA ([1]; day 0): 2.1%
- COMPOUND A Assay ([1]; day 0, HPLC): 69.9%
- COMPOUND B Assay ([1]; day 0, HPLC): 0.1%
- HPLC Purity ([1]; day 7): 99.6%
- TGA ([1]; day 7): 2.3%
- XRPD ([1]; day 7): No change
- COMPOUND A Assay ([1]; day 7, HPLC): 68.4%
- COMPOUND B Assay ([1]; day 7, HPLC): 0.1%
- HPLC Purity ([1]; day 14): 99.7%
- TGA ([1]; day 14): 2.6%
- XRPD ([1]; day 14): No change
- COMPOUND A Assay ([1]; day 14, HPLC): 73.2%
- COMPOUND B Assay ([1]; day 14, HPLC): 0.2%
- HPLC Purity ([1]; day 28): 99.5%
- TGA ([1]; day 28): 3.5%
- XRPD ([1]; day 28): No change
- COMPOUND A Assay ([1]; day 28, HPLC): 66.8%
- COMPOUND B Assay ([1]; day 28, HPLC): 0.6%
- DVS sorption behaviour (in words) [3]: surface adsorption with limited bulk absorption throughout the entire RH range
- Total uptake in moisture at 90% RH ([3]; 90% RH): ~3.5%

SMILES: COc1cccc2[nH]c3c4c(c5c(c3c12)C(=O)N(CN1CCN(C)CC1)C5=O)CCC4 [Hydrochloride Salt, Form A]
- Stability to the test conditions (in words) [1]: relatively constant XRPD pattern
- Compound A Assay value, change (in words) ([1]; after 28 days): decreasing to nearly half
- DVS sorption behaviour (in words) [3]: surface adsorption with limited bulk absorption throughout the entire RH range
- Total uptake (moisture) ([3]; entire RH range): ~2.25%

SMILES: COc1cccc2[nH]c3c4c(c5c(c3c12)C(=O)N(CN1CCN(C)CC1)C5=O)CCC4 [Sample 13-3]
- Estimated Water Solubility [2]: 50 to 100 mg/mL

SMILES: COc1cccc2[nH]c3c4c(c5c(c3c12)C(=O)N(CN1CCN(C)CC1)C5=O)CCC4 [Sample 13-4]
- Estimated Water Solubility [2]: <10 mg/mL

SMILES: COc1cccc2[nH]c3c4c(c5c(c3c12)C(=O)N(CN1CCN(C)CC1)C5=O)CCC4 [Sample 13-5]
- Estimated Water Solubility [2]: <10 mg/mL

SMILES: COc1cccc2[nH]c3c4c(c5c(c3c12)C(=O)N(CN1CCN(C)CC1)C5=O)CCC4 [Sample 13-6]
- Estimated Water Solubility [2]: >100 mg/mL

SMILES: COc1cccc2[nH]c3c4c(c5c(c3c12)C(=O)N(CN1CCN(C)CC1)C5=O)CCC4 [Sample 13-7]
- Estimated Water Solubility [2]: 50 to 100 mg/mL

SMILES: COc1cccc2[nH]c3c4c(c5c(c3c12)C(=O)N(CN1CCN(C)CC1)C5=O)CCC4 [Sample 13-8]
- Estimated Water Solubility [2]: >100 mg/mL

SMILES: COc1cccc2[nH]c3c4c(c5c(c3c12)C(=O)N(CN1CCN(C)CC1)C5=O)CCC4 [Sample 13-9]
- Estimated Water Solubility [2]: <10 mg/mL

SMILES: COc1cccc2[nH]c3c4c(c5c(c3c12)C(=O)N(CN1CCN(C)CC1)C5=O)CCC4 [Sample 13-10]
- Estimated Water Solubility [2]: 10 to 20 mg/mL

SMILES: COc1cccc2[nH]c3c4c(c5c(c3c12)C(=O)N(CN1CCN(C)CC1)C5=O)CCC4 [Sample 30-1]
- Estimated Water Solubility [2]: ~20 mg/mL

SMILES: COc1cccc2[nH]c3c4c(c5c(c3c12)C(=O)N(CN1CCN(C)CC1)C5=O)CCC4 [Sample 30-2]
- Estimated Water Solubility [2]: >100 mg/mL

SMILES: COc1cccc2[nH]c3c4c(c5c(c3c12)C(=O)N(CN1CCN(C)CC1)C5=O)CCC4 [Sample 30-3]
- Estimated Water Solubility [2]: >100 mg/mL

SMILES: COc1cccc2[nH]c3c4c(c5c(c3c12)C(=O)N(CN1CCN(C)CC1)C5=O)CCC4 [Sample 30-4]
- Estimated Water Solubility [2]: >100 mg/mL

SMILES: COc1cccc2[nH]c3c4c(c5c(c3c12)C(=O)N(CN1CCN(C)CC1)C5=O)CCC4 [Sample 30-5]
- Estimated Water Solubility [2]: ~25 mg/mL

SMILES: COc1cccc2[nH]c3c4c(c5c(c3c12)C(=O)N(CN1CCN(C)CC1)C5=O)CCC4 [Sample 31-1]
- Estimated Water Solubility [2]: ~25 mg/mL

SMILES: COc1cccc2[nH]c3c4c(c5c(c3c12)C(=O)N(CN1CCN(C)CC1)C5=O)CCC4 [Sample 31-2]
- Estimated Water Solubility [2]: >100 mg/mL

SMILES: COc1cccc2[nH]c3c4c(c5c(c3c12)C(=O)N(CN1CCN(C)CC1)C5=O)CCC4 [Sample 31-3]
- Estimated Water Solubility [2]: >100 mg/mL

SMILES: COc1cccc2[nH]c3c4c(c5c(c3c12)C(=O)N(CN1CCN(C)CC1)C5=O)CCC4 [Sample 31-4]
- Estimated Water Solubility [2]: >100 mg/mL

SMILES: COc1cccc2[nH]c3c4c(c5c(c3c12)C(=O)N(CN1CCN(C)CC1)C5=O)CCC4 [Sample 31-5]
- Estimated Water Solubility [2]: ~25 mg/mL

SMILES: COc1cccc2[nH]c3c4c(c5c(c3c12)C(=O)N(CN1CCN(C)CC1)C5=O)CCC4 [Sample 39-1]
- Estimated Water Solubility [2]: ~50 mg/mL

SMILES: COc1cccc2[nH]c3c4c(c5c(c3c12)C(=O)N(CN1CCN(C)CC1)C5=O)CCC4 [Sample 39-2]
- Estimated Water Solubility [2]: <10 mg/mL

SMILES: COc1cccc2[nH]c3c4c(c5c(c3c12)C(=O)N(CN1CCN(C)CC1)C5=O)CCC4 [Sample 39-3]
- Estimated Water Solubility [2]: >100 mg/mL

SMILES: COc1cccc2[nH]c3c4c(c5c(c3c12)C(=O)N(CN1CCN(C)CC1)C5=O)CCC4 [Sample 39-4]
- Estimated Water Solubility [2]: >100 mg/mL

SMILES: COc1cccc2[nH]c3c4c(c5c(c3c12)C(=O)N(CN1CCN(C)CC1)C5=O)CCC4 [Sample 39-5]
- Estimated Water Solubility [2]: >100 mg/mL
